Measured values reported in the supplement of paper PMC9663587.

Legend:
YKL-5-124 = compound: C=CC(=O)Nc1ccc(C(=O)Nc2[nH]nc3c2CN(C(=O)N[C@H](CN(C)C)c2ccccc2)C3(C)C)cc1 [YKL-5-124]; experiment: GR value, 72 h; higher = faster growth (1 = untreated, <0 = killing);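 also: breast cancer and non-malignant breast epithelial lines, nine half-log doses, viable cells counted by Hoechst and LIVE/DEAD dye imaging versus time-zero plates and DMSO controls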
LEE011/Ribociclib = compound: CN(C)C(=O)c1cc2cnc(Nc3ccc(N4CCNCC4)cn3)nc2n1C1CCCC1 [LEE011/Ribociclib]; experiment: as above
THZ531 = compound: CN(C)C/C=C/C(=O)Nc1ccc(C(=O)N2CCC[C@@H](Nc3ncc(Cl)c(-c4c[nH]c5ccccc45)n3)C2)cc1 [THZ531]; experiment: as above
THZ1 = compound: CN(C)C/C=C/C(=O)Nc1ccc(C(=O)Nc2cccc(Nc3ncc(Cl)c(-c4c[nH]c5ccccc45)n3)c2)cc1 [THZ1]; experiment: as above
[1] = compound: CCc1cnn2c(NCc3ccc[n+]([O-])c3)cc(N3CCCC[C@H]3CCO)nc12; experiment: as above
Flavopiridol [2] = compound: T1, CN1CC[C@H](c2c(O)cc(O)c3c(=O)cc(-c4ccccc4Cl)oc23)[C@H](O)C1 [Flavopiridol]; experiment: as above
[3] = compound: CCN1CCN(Cc2ccc(Nc3ncc(F)c(-c4cc(F)c5nc(C)n(C(C)C)c5c4)n3)nc2)CC1; experiment: as above
BSJ-03-123 [4] = compound: T2, CC(=O)c1c(C)c2cnc(Nc3ccc(N4CCN(CCOCCOCCOCCNC(=O)COc5cccc6c5C(=O)N(C5CCC(=O)NC5=O)C6=O)CC4)cn3)nc2n(C2CCCC2)c1=O [BSJ-03-123]; experiment: as above
BVD523 = compound: CC(C)Nc1cc(-c2c[nH]c(C(=O)N[C@H](CO)c3cccc(Cl)c3)c2)c(Cl)cn1 [BVD523]
Neratinib/HKI272 = compound: CCOc1cc2ncc(C#N)c(Nc3ccc(OCc4ccccn4)c(Cl)c3)c2cc1NC(=O)/C=C/CN(C)C [Neratinib/HKI272]
R0-3306 = compound: C1=CC2=C(C=CC(=C2)C=C3C(=O)NC(=NCC4=CC=CS4)S3)N=C1 [R0-3306]
AZD5363 = compound: NC1(C(=O)N[C@@H](CCO)c2ccc(Cl)cc2)CCN(c2nc[nH]c3nccc2-3)CC1 [AZD5363]
Flavopiridol [5] = compound: T1, Flavopiridol
[6] = compound: CCC1=CN=CN=C1N2CCN(CC2)CC3=NC4=C(N3)C=C(C=C4)C(F)(F)F
[7] = compound: CO[C@@H](C)Cn1c(=O)n(C)c2cnc3ccc(-c4cncc(C(C)(C)O)c4)cc3c21
Paclitaxel = compound: CC(=O)O[C@H]1C(=O)[C@@]2(C)[C@H]([C@H](OC(=O)c3ccccc3)[C@]3(O)C[C@H](OC(=O)[C@H](O)[C@@H](NC(=O)c4ccccc4)c4ccccc4)C(C)=C1C3(C)C)[C@]1(OC(C)=O)CO[C@@H]1C[C@@H]2O [Paclitaxel]
BSJ-03-123 [8] = compound: T2, BSJ-03-123
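For GR50, 72 h in this document: breast cancer and non-malignant breast epithelial cell lines, Deep Dye Drop or Dye Drop imaging, nine half-log doses, GR normalized to time-zero plates and DMSO-only controls.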

Q: With HCC1806 as the cell line, how does the GR value (YKL-5-124; 0.001 µM) read?
A: 0.386 GR

Q: What about the GR value (YKL-5-124; 0.003162 µM) of the same cell line?
A: 0.232 GR

Q: And the GR value (YKL-5-124; 0.01 µM)?
A: 0.105 GR

Q: What about the GR value (YKL-5-124; 0.03162 µM) of the same cell line?
A: 0.0295 GR

Q: What about the GR value (YKL-5-124; 0.1 µM) of the same cell line?
A: -0.0411 GR

Q: What about the GR value (YKL-5-124; 0.3162 µM) of the same cell line?
A: -0.075 GR

Q: And the GR value (YKL-5-124; 1 µM)?
A: -0.155 GR

Q: What about the GR value (YKL-5-124; 3.162 µM) of the same cell line?
A: -0.19 GR

Q: What about the GR value (YKL-5-124; 10 µM) of the same cell line?
A: -0.466 GR

Q: What about the GR value (LEE011/Ribociclib; 0.001 µM) of the same cell line?
A: 0.919 GR

Q: And the GR value (LEE011/Ribociclib; 0.003162 µM)?
A: 0.948 GR

Q: What about the GR value (LEE011/Ribociclib; 0.01 µM) of the same cell line?
A: 0.884 GR

Q: What about the GR value (LEE011/Ribociclib; 0.03162 µM) of the same cell line?
A: 0.886 GR

Q: What about the GR value (LEE011/Ribociclib; 0.1 µM) of the same cell line?
A: 0.876 GR

Q: What about the GR value (LEE011/Ribociclib; 0.3162 µM) of the same cell line?
A: 0.824 GR

Q: What about the GR value (LEE011/Ribociclib; 1 µM) of the same cell line?
A: 0.796 GR

Q: What about the GR value (LEE011/Ribociclib; 3.162 µM) of the same cell line?
A: 0.801 GR

Q: And the GR value (LEE011/Ribociclib; 10 µM)?
A: 0.699 GR

Q: What about the GR value (THZ531; 0.0001 µM) of the same cell line?
A: 0.976 GR

Q: And the GR value (THZ531; 0.0003162 µM)?
A: 0.999 GR

Q: What about the GR value (THZ531; 0.001 µM) of the same cell line?
A: 1.04 GR

Q: What about the GR value (THZ531; 0.003162 µM) of the same cell line?
A: 1.01 GR

Q: And the GR value (THZ531; 0.01 µM)?
A: 1.07 GR

Q: What about the GR value (THZ531; 0.03162 µM) of the same cell line?
A: 1 GR

Q: And the GR value (THZ531; 0.1 µM)?
A: 0.992 GR

Q: What about the GR value (THZ531; 0.3162 µM) of the same cell line?
A: 0.659 GR

Q: And the GR value (THZ531; 1 µM)?
A: -0.489 GR

Q: And the GR value (THZ1; 0.0001 µM)?
A: 1.08 GR

Q: And the GR value (THZ1; 0.0003162 µM)?
A: 1.04 GR

Q: What about the GR value (THZ1; 0.001 µM) of the same cell line?
A: 1.04 GR

Q: And the GR value (THZ1; 0.003162 µM)?
A: 1 GR

Q: And the GR value (THZ1; 0.01 µM)?
A: 0.968 GR

Q: What about the GR value (THZ1; 0.03162 µM) of the same cell line?
A: 0.739 GR

Q: And the GR value (THZ1; 0.1 µM)?
A: 0.323 GR

Q: And the GR value (THZ1; 0.3162 µM)?
A: -0.252 GR

Q: What about the GR value (THZ1; 1 µM) of the same cell line?
A: -0.656 GR

Q: And the GR value ([1]; 0.0001 µM)?
A: 1.04 GR

Q: What about the GR value ([1]; 0.0003162 µM) of the same cell line?
A: 1.05 GR

Q: What about the GR value ([1]; 0.001 µM) of the same cell line?
A: 1 GR

Q: And the GR value ([1]; 0.003162 µM)?
A: 1.01 GR

Q: What about the GR value ([1]; 0.01 µM) of the same cell line?
A: 0.798 GR

Q: And the GR value ([1]; 0.03162 µM)?
A: -0.315 GR

Q: And the GR value ([1]; 0.1 µM)?
A: -0.472 GR

Q: And the GR value ([1]; 0.3162 µM)?
A: -0.465 GR

Q: What about the GR value ([1]; 1 µM) of the same cell line?
A: -0.45 GR

Q: And the GR value (Flavopiridol [2]; 0.0001 µM)?
A: 0.956 GR

Q: What about the GR value (Flavopiridol [2]; 0.0003162 µM) of the same cell line?
A: 1.03 GR

Q: What about the GR value (Flavopiridol [2]; 0.001 µM) of the same cell line?
A: 1.04 GR

Q: And the GR value (Flavopiridol [2]; 0.003162 µM)?
A: 0.878 GR

Q: And the GR value (Flavopiridol [2]; 0.01 µM)?
A: 1.03 GR

Q: And the GR value (Flavopiridol [2]; 0.03162 µM)?
A: 0.926 GR

Q: What about the GR value (Flavopiridol [2]; 0.1 µM) of the same cell line?
A: 0.659 GR

Q: And the GR value (Flavopiridol [2]; 0.3162 µM)?
A: 0.199 GR

Q: What about the GR value (Flavopiridol [2]; 1 µM) of the same cell line?
A: -0.565 GR

Q: And the GR value ([3]; 0.001 µM)?
A: 0.986 GR

Q: And the GR value ([3]; 0.003162 µM)?
A: 0.943 GR

Q: What about the GR value ([3]; 0.01 µM) of the same cell line?
A: 0.894 GR

Q: What about the GR value ([3]; 0.03162 µM) of the same cell line?
A: 0.779 GR

Q: What about the GR value ([3]; 0.1 µM) of the same cell line?
A: 0.75 GR

Q: What about the GR value ([3]; 0.3162 µM) of the same cell line?
A: 0.667 GR

Q: What about the GR value ([3]; 1 µM) of the same cell line?
A: 0.447 GR

Q: And the GR value ([3]; 3.162 µM)?
A: 0.129 GR

Q: And the GR value ([3]; 10 µM)?
A: -0.456 GR

Q: What about the GR value (BSJ-03-123 [4]; 0.001 µM) of the same cell line?
A: 1 GR

Q: And the GR value (BSJ-03-123 [4]; 0.003162 µM)?
A: 0.98 GR

Q: And the GR value (BSJ-03-123 [4]; 0.01 µM)?
A: 0.958 GR

Q: And the GR value (BSJ-03-123 [4]; 0.03162 µM)?
A: 0.963 GR

Q: And the GR value (BSJ-03-123 [4]; 0.1 µM)?
A: 0.902 GR

Q: What about the GR value (BSJ-03-123 [4]; 0.3162 µM) of the same cell line?
A: 0.831 GR

Q: And the GR value (BSJ-03-123 [4]; 1 µM)?
A: 0.648 GR

Q: What about the GR value (BSJ-03-123 [4]; 3.162 µM) of the same cell line?
A: 0.566 GR

Q: What about the GR value (BSJ-03-123 [4]; 10 µM) of the same cell line?
A: -0.0555 GR

Q: And the “GR50, 72 h” value (BVD523)?
A: > 10 µM

Q: What about the “GR50, 72 h” value (Neratinib/HKI272) of the same cell line?
A: 0.78 µM

Q: And the “GR50, 72 h” value (R0-3306)?
A: 5.39 µM

Q: What about the “GR50, 72 h” value (AZD5363) of the same cell line?
A: > 10 µM

Q: What about the “GR50, 72 h” value (Flavopiridol [5]) of the same cell line?
A: 0.168 µM

Q: What about the “GR50, 72 h” value [6] of the same cell line?
A: > 10 µM

Q: What about the “GR50, 72 h” value [7] of the same cell line?
A: 0.347 µM

Q: What about the “GR50, 72 h” value (Paclitaxel) of the same cell line?
A: 0.00143 µM

Q: And the “GR50, 72 h” value (BSJ-03-123 [8])?
A: 2.56 µM
